# Test results from US5262431A, “Prolinal derivatives and pharmaceutical compositions thereof” (Ono Pharmaceutical Co., Ltd., priority 1986, dated 1993).
# pIC50: −log10 of the molar value. Peptide text beside a SMILES is read from it. * marks the point of attachment. Cbz = O=C(OCc1ccccc1)*; CH2Cl = ClC*
# Molecular target: T1, prolyl endopeptidase (Bos taurus, UniProt Q9XTA2)
# T1 construct: prolyl endopeptidase which was purified from bovine brain; from tissue; host or cells: bovine brain
# T1 sequence (Q9XTA2 1-710): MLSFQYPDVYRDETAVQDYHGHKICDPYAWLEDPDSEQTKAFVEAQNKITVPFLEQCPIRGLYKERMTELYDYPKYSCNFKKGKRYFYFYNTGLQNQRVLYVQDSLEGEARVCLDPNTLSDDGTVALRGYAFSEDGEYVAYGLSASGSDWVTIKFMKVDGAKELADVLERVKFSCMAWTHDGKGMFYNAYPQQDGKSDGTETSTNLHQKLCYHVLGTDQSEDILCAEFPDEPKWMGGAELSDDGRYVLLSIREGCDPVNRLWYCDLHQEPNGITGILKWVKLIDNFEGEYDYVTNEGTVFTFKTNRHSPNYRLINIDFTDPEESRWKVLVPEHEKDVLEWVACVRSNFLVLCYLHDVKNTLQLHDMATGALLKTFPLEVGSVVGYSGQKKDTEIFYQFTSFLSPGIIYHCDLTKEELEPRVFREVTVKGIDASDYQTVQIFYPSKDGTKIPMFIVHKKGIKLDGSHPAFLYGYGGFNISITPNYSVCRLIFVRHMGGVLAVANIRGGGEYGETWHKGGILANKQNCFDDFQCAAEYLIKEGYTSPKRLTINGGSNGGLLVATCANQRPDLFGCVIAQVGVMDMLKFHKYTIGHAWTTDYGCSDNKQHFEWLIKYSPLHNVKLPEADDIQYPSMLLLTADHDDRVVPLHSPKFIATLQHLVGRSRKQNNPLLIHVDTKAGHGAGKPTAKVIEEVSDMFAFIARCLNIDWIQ
# Experiment: Prolyl endopeptidase inhibitory activity in vitro
# Format: biochemical, bovine
# Settings: not given
# Procedure: Prolyl Endopeptidase Inhibitory Activity In Vitro
# Inhibitory activity of prolyl endopeptidase in vitro was measured by the following test system.
# A mixed solution of 20 mM tris-HCl buffer (pH 7.5; 935 μl; containing 10 mM EDTA and 10 mM mercaptoethanol), a solution of a compound of the present invention In DMSO (10 μl) and a solution of prolyl endopeptidase which was purified from bovine brain (0.13 unit; prepared by the method described in J. Biochem., 94, 1179 (1983)) in tris-HCl buffer (15 μl) was preincubated for 15 mins at 37° C.
# To the solution, 5 mM of N-benzyloxycarbonyl-glycyl-prolyl-p-nitroanilide (40 μl) in a mixture of 40% dioxane-60% water was added. The solution was incubated for 1 min at the same temperature.
# Optical absorption (a1) at 405 nm of the solution, and optical absorption (a2) at 405 nm of the solution after more 30 mins' incubation at 37° C. were measured.
# Optical absorptions (b1 and b2) of the solutions using DMSO instead of the solution of the compound of the present invention were also measured.
# Inhibitory ratio was calculated by the following expression and IC50 (required concentration for 50% inhibition) was obtained (See Protein, Nucleic acid and Enzyme 25(6), 513, 1980.). [formula]
row,Molecule,pIC50
1,"CC(C)C(CCc1ccccc1)C(=O)N1CCC[C@H]1C=O (stereo partly drawn) [N-(2-isopropyl-4-phenyl-butyryl)-L-prolinal, reference compound]",< 5.30
2,"O=C[C@@H]1CCCN1C(=O)[C@@H]1CCC[C@H]1CCCCc1ccccc1 (relative stereo) [Example 2, N-[DL-Trans-2-(4-Phenylbutyl)Cyclopentanecarbonyl] -L-prolinal]",6.89
3,"CC(C)C(CCCCCCCCc1ccccc1)C(=O)N1CCC[C@H]1C=O (stereo partly drawn) [1(e), N-(2-isopropyl-10-phenyldecanoyl)-L-prolinal]",6.92
4,"CC(C)C(CCCc1ccccc1)C(=O)N1CCC[C@H]1C=O (stereo partly drawn) [1(a), N-(2-isopropyl-5-phenyl-pentanoyl)-L-prolinal]",6.43
5,"COc1ccc(CCCC(=O)N2CCC[C@H]2C=O)cc1 [N-[4-(4-methoxyphenyl)bu-tyryl]-L-prolinal, reference compound]",4.68
6,"CC(C)C(CCCCCCCc1ccccc1)C(=O)N1CCC[C@H]1C=O (stereo partly drawn) [1(d), N-(2-isopropyl-9-phenyl-nonanoyl)-L-prolinal]",6.64
7,"CC(C)C(CCCCCCc1ccccc1)C(=O)N1CCC[C@H]1C=O (stereo partly drawn) [1(c), N-(2-isopropyl-8-phenyl-octanoyl)-L-prolinal]",6.72
8,"CC(C)C(CCCCCc1ccccc1)C(=O)N1CCC[C@H]1C=O (stereo partly drawn) [1(b), N-(2-isopropyl-7-phenyl-heptanoyl)-L-prolinal]",7.10
9,"CC(C)C(CCCCc1ccccc1)C(=O)N1CCC[C@H]1C=O (stereo partly drawn) [Example 1, N-(2-Isopropyl-6-Phenylhexanoyl)-L-Prolinal]",6.55
10,COc1ccc(CCCCCC(C(=O)N2CCC[C@H]2C=O)C(C)C)cc1 (some centres unmarked),6.77

# Same assay, conditions: Table I, formula (Ia); purified from bovine brain; pH 7.5, 37° C.; read-out: Concentration for 50% inhibition IC50
row,Molecule,pIC50
1,N-[9-(4-phenylbutyl)cyclo-hexane carbonyl]-L-prolinal [2(a)],6.37

# Same assay, conditions: read-out: Concentration for 50% inhibition IC50; Table II, formula (Ib); purified from bovine brain; pH 7.5, 37° C.
row,Molecule,pIC50
1,O=C[C@@H]1CCCN1C(=O)C(CCCCCc1ccccc1)c1ccccc1 (some centres unmarked),6.21
2,O=C[C@@H]1CCCN1C(=O)C(CCCCc1ccccc1)C1CCCCC1 (some centres unmarked),6.16

# Test system: prolyl endopeptidase
# Experiment: not given
# Settings: literature; cited from earlier work
row,Molecule,inhibition of prolyl endopeptidase (in words)
1,O=C(NCC(=O)N1CCC[C@H]1C(=O)CCl)OCc1ccccc1 [N-benzyloxycarbonyl-glycyl-L-prolyl-chloromethane] (Cbz-Gly-Pro-CH2Cl),strongly inhibit prolyl endopeptidase
